Experimental data as given in patent US11866430B2, “Naphthyridinone compounds useful as T cell activators” (priority 2018, dated 2024).

Key:
[1] = tested on: pre-activated CD4 T cells and Raji cells; experiment: Raji CD4 T Cell IL2 Assay; assay type: cell-based; conditions: Homo sapiens, Raji
human DGKζ [2] = target: T1, human DGKζ (Homo sapiens (Human), UniProt Q13574); experiment: DGKζ LIPGLO assay (extruded liposome substrate); assay type: biochemical; conditions: extruded liposome substrate; read-out: DGKζ LIPGLO IC50
Outline: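 Sf9-derived DGKζ was premixed 10 min with PC/DAG/PS liposomes (100 nm extruded) in MOPS pH 7.5 buffer containing NaCl, MgCl2, CaCl2 and DTT.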

human DGKα [3] = target: T2, human DGKα (Homo sapiens (Human), UniProt P23743); experiment: DGKα LIPGLO assay (extruded liposome substrate); assay type: biochemical
Outline: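 Human full-length DGKα, His-tagged and produced in Sf9 cells, assayed at 20 nM (4× stock) on extruded liposomes of PS, 0.25 mM DAG and 2.75 mM PC, preincubated 10 min. Reaction started with 300 μM ATP (stock) and ran 1 h in MOPS pH 7.5/MgCl2/CaCl2/DTT buffer.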

human DGKζ [4] = target: T1, human DGKζ; experiment: DGKζ assay (detergent/lipid micelle substrate); assay type: biochemical; conditions: detergent/lipid micelle substrate; read-out: DGKζ IC50
Outline: (§1)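 Enzymes were baculovirus/Sf9 full-length human DGKα or DGKζ with His tag. The substrate was PS/DAG in octyl glucoside micelles, in MOPS pH 7.5 buffer with NaCl, MgCl2, CaCl2 and DTT.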

human DGKα [5] = target: T2, human DGKα; experiment: biochemical; conditions: detergent/lipid micelle substrate; read-out: DGKα IC50
Outline: as §1

T2 sequence (P23743 other isoform, or with tags, fused parts or gaps): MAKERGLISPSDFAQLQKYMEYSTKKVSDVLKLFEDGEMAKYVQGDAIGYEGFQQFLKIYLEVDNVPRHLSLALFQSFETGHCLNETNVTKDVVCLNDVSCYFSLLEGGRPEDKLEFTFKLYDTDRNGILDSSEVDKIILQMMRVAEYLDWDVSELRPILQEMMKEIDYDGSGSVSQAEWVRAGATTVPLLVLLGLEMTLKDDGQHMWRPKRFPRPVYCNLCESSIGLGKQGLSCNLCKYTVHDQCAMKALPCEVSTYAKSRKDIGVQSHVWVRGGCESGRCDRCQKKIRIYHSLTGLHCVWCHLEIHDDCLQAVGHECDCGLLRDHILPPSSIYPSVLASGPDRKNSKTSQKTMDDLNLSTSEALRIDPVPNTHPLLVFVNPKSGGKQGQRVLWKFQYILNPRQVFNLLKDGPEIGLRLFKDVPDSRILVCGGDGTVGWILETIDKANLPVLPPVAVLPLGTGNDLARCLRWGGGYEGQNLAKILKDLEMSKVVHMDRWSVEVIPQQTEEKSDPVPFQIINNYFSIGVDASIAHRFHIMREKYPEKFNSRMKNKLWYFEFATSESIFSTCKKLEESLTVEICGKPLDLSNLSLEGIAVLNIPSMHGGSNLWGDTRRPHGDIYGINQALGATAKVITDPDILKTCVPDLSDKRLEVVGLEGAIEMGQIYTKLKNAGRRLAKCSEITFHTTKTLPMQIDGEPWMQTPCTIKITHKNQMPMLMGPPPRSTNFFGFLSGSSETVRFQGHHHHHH
T1 sequence (Q13574 other isoform, or with tags, fused parts or gaps): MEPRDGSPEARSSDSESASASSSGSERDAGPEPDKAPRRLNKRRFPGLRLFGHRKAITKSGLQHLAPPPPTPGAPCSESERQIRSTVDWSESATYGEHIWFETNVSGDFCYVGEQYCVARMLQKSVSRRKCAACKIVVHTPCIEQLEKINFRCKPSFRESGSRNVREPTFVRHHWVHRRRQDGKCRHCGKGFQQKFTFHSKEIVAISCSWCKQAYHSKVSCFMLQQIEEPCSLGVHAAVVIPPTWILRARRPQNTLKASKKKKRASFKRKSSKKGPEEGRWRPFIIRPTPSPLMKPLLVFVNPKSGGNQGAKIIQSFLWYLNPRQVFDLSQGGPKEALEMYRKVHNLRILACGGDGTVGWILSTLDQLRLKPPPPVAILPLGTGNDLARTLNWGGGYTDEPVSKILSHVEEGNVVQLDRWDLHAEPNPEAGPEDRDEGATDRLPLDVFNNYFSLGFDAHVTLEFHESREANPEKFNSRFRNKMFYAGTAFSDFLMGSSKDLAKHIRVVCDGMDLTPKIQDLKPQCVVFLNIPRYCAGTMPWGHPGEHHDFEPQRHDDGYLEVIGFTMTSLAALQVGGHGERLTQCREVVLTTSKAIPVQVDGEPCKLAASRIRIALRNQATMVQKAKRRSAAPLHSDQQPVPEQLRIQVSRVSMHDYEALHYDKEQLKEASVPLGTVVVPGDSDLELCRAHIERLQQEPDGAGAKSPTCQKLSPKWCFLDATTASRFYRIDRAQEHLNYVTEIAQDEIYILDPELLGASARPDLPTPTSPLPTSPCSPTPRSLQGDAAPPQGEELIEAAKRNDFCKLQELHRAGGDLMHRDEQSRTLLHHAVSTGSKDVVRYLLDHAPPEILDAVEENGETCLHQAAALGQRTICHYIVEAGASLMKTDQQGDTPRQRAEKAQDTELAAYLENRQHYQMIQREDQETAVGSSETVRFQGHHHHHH

| Structure (SMILES) | IC50 [1] | IC50 (human DGKζ [2]) | IC50 (human DGKα [3]) | IC50 (human DGKζ [4]) | IC50 (human DGKα [5]) |
| --- | --- | --- | --- | --- | --- |
| Cc1ccc2c(n1)c(N1CCN(Cc3ccc(F)cc3O)CC1)c(C#N)c(=O)n2C [Example 194, 4-(4-(4-fluoro-2-hydroxybenzyl)piperazin-1-yl)-1,6-dimethyl-2-oxo-1,2-dihydro-1,5-naphthyridine-3-carbonitrile] | 440 nM | 8300 nM | 180 nM | 62000 nM | 76 nM |
| C=CCOc1cc(F)ccc1C(C)N1CCN(c2c(C#N)c(=O)n(C)c3ccc(Cl)nc23)CC1 (centres unmarked) [Example 195, 4-(4-(1-(2-(allyloxy)-4-fluorophenyl)ethyl)piperazin-1-yl)-6-chloro-1-methyl-2-oxo-1,2-dihydro-1,5-naphthyridine-3-carbonitrile] | 120 nM | 98000 nM | 1700 nM | > 240000 nM | 220 nM |
| Cn1c(=O)c(C#N)c(N2CCN(C(c3ccccc3)c3ccccc3)CC2)c2ncccc21 [Example 196, 4-(4-benzhydrylpiperazin-1-yl)-1-methyl-2-oxo-1,2-dihydro-1,5-naphthyridine-3-carbonitrile] | 2100 nM | 43000 nM | 2700 nM | > 240000 nM | 4000 nM |
| Cn1c(=O)c(C#N)c(N2CCN(Cc3cccc4c3NCC4)CC2)c2nc(Cl)ccc21 [Example 216, 6-chloro-4-(4-(indolin-7-ylmethyl)piperazin-1-yl)-1-methyl-2-oxo-1,2-dihydro-1,5-naphthyridine-3-carbonitrile] | 64 nM | 4800 nM | 1200 nM | 54000 nM | 1400 nM |
| Cn1c(=O)c(C#N)c(N2CCN(C(c3ccc(F)cc3)c3ccc(F)cc3)CC2)c2nc(C#N)ccc21 [Example 217, 8-(4-(bis(4-fluorophenyl)methyl)piperazin-1-yl)-5-methy-6-oxo-5,6-dihydro-1,5-naphthyridine-2,7-dicarbonitrile] | 67 nM | 1400 nM | 1300 nM | 4500 nM | 2300 nM |
| Cn1c(=O)c(C#N)c(N2CCN(C(c3ccc(F)cc3)c3ccc(F)cc3)CC2)c2nc(Cl)ccc21 [Example 218, 4-(4-(bis(4-fluorophenyl)methyl)piperazin-1-yl)-6-chloro-1-methyl-2-oxo-1,2-dihydro-1,5-naphthyridine-3-carbonitrile] | 93 nM | 5100 nM | 1500 nM | > 81000 nM | 690 nM |
| Cn1c(=O)c(C#N)c(N2CCN(Cc3cccc4ccccc34)CC2)c2nc(Cl)ccc21 [Example 221, 6-chloro-1-methyl-4-(4-(naphthalen-1-ylmethyl)piperazin-1-yl)-2-oxo-1,2-dihydro-1,5-naphthyridine-3-carbonitrile] | 330 nM | 18000 nM | 3400 nM | > 240000 nM | 740 nM |
| Cn1c(=O)c([N+](=O)[O-])c(N2CCN(C(c3ccccc3)c3ccccc3)CC2)c2nc(C#N)ccc21 [Example 223, 8-(4-benzhydrylpiperazin-1-yl)-5-methyl-7-nitro-6-oxo-5,6-dihydro-1,5-naphthyridine-2-carbonitrile] | 42 nM | 620 nM | 9900 nM | 3200 nM | 1900 nM |
| CCn1ccc2c(CN3CCN(c4c(C#N)c(=O)n(C)c5ccc(Br)nc45)CC3)cccc21 [Example 225, 6-bromo-4-(4-((1-ethyl-1H-indol-4-yl)methyl)piperazin-1-yl)-1-methyl-2-oxo-1,2-dihydro-1,5-naphthyridine-3-carbonitrile] | 70 nM | 1300 nM | 820 nM | 14000 nM | 390 nM |
| Cc1ccc2c(n1)c(N1CCN(C(c3ccc(F)cc3)c3ccc(F)cc3)CC1)c(C#N)c(=O)n2C [Example 226, 4-(4-(bis(4-fluorophenyl)methyl)piperazin-1-yl)-1,6-dimethyl-2-oxo-1,2-dihydro-1,5-naphthyridine-3-carbonitrile] | 84 nM | 10000 nM | 3900 nM | 70000 nM | 1600 nM |
| Cn1c(=O)c(C(=O)C(F)(F)F)c(N2CCN(C(c3ccc(F)cc3)c3ccc(F)cc3)CC2)c2ncccc21 [Example 227, 4-(4-(bis(4-fluorophenyl)methyl)piperazin-1-yl)-1-methyl-3-(2,2,2-trifluoroacetyl)-1,5-naphthyridin-2(1H)-one] | 1500 nM | 11000 nM | 230000 nM | > 240000 nM | > 240000 nM |
| C#CCn1c(=O)c(C#N)c(N2CCN(C(c3ccc(F)cc3)c3ccc(F)cc3)CC2)c2nc(Br)ccc21 [Example 229, 4-(4-(bis(4-fluorophenyl)methyl)piperazin-1-yl)-6-bromo-2-oxo-1-(prop-2-yn-1-yl)-1,2-dihydro-1,5-naphthyridine-3-carbonitrile] | 120 nM | 11000 nM | > 240000 nM | 14000 nM | 14000 nM |
| Cc1ccc2c(n1)c(N1CCN(C(c3ccc(F)cc3)c3ccc(F)cc3)CC1)c(Cl)c(=O)n2C [Example 233, 4-(4-(bis(4-fluorophenyl)methyl)piperazin-1-yl)-3-chloro-1,6-dimethyl-1,5-naphthyridin-2(1H)-one] | 480 nM | 6600 nM | 3000 nM | > 240000 nM | 8400 nM |
| Cc1ccc2c(n1)c(N1CCN(C(c3ccc(F)cc3)c3ccc(F)cc3)CC1)c(Br)c(=O)n2C [Example 239, 4-(4-(bis(4-fluorophenyl)methyl)piperazin-1-yl)-3-bromo-1,6-dimethyl-1,5-naphthyridin-2(1H)-one] | 3600 nM | 51000 nM | 9900 nM | > 240000 nM | 11000 nM |
| Cn1c(=O)c(C#N)c(N2CCN(Cc3c(O)cccc3Br)CC2)c2nc(Cl)ccc21 [Example 258, 4-{4-[(2-bromo-6-hydroxyphenyl)methyl]piperazin-1-yl}-6-chloro-1-methyl-2-oxo-1,2-dihydro-1,5-naphthyridine-3-carbonitrile] | 5.3 nM | 5300 nM | 1600 nM | 26000 nM | 430 nM |
| Cc1cccc(O)c1CN1CCN(c2c(C#N)c(=O)n(C)c3ccc(Br)nc23)CC1 [Example 259, 6-bromo-4-{4-[(2-hydroxy-6-methylphenyl)methyl]piperazin-yl}-1-methyl-2-oxo-1,2-dihydro-1,5-naphthyridine-3-carbonitrile] | 16 nM | 4000 nM | 490 nM | 55000 nM | 420 nM |
| Cn1c(=O)c(C#N)c(N2CCN(Cc3ccc(C(C)(C)C)cc3O)CC2)c2nc(Cl)ccc21 [Example 261, 4-{4-[(4-tert-butyl-2-hydroxyphenyl)methyl]piperazin-1-yl}-6-chloro-1-methyl-2-oxo-1,2-dihydro-1,5-naphthyridine-3-carbonitrile] | 21 nM | 10000 nM | 710 nM | > 240000 nM | 430 nM |
| Cn1c(=O)c(C#N)c(N2CCN(Cc3ccc(Br)cc3O)CC2)c2nc(C#N)ccc21 [Example 263, 8-{4-[(4-bromo-2-hydroxyphenyl)methyl]piperazin-1-yl}-5-methyl-6-oxo-5,6-dihydro-1,5-naphthyridine-2,7-dicarbonitrile] | 35 nM | 5200 nM | 220 nM | 14000 nM | 84 nM |
| Cn1c(=O)c(C#N)c(N2CCN(Cc3ccc(Cl)cc3O)CC2)c2nc(C#N)ccc21 [Example 269, 8-{4-[(4-chloro-2-hydroxyphenyl)methyl]piperazin-1-yl}-5-methyl-6-oxo-5,6-dihydro-1,5-naphthyridine-2,7-dicarbonitrile] | 57 nM | 2800 nM | 210 nM | 26000 nM | 52 nM |
| Cn1c(=O)c(C#N)c(N2CCN(Cc3ccccc3Cl)CC2)c2nc(Cl)ccc21 [Example 272, 6-chloro-4-{4-[(2-chlorophenyl)methyl]piperazin-1-yl}-1-methyl-2-oxo-1,2-dihydro-1,5-naphthyridine-3-carbonitrile] | 64 nM | 10000 nM | 2300 nM | > 240000 nM | 1500 nM |
| Cc1ccc(CN2CCN(c3c(C#N)c(=O)n(C)c4ccc(Cl)nc34)CC2)c(O)c1 [Example 273, 6-chloro-4-{4-[(2-hydroxy-4-methylphenyl)methyl]piperazin-1-yl}-1-methyl-2-oxo-1,2-dihydro-1,5-naphthyridine-3-carbonitrile] | 64 nM | 7800 nM | 82 nM | 69000 nM | 18 nM |
| COc1c(F)cccc1CN1CCN(c2c(C#N)c(=O)n(C)c3ccc(Cl)nc23)CC1 [Example 274, 6-chloro-4-{4-[(3-fluoro-2-methoxyphenyl)methyl]piperazin-1-yl}-1-methyl-2-oxo-1,2-dihydro-1,5-naphthyridine-3-carbonitrile] | 72 nM | 5400 nM | 1600 nM | 30000 nM | 670 nM |
